Results reported in patent publication US20160115540A1, “PRODRUGS AND DRUGS” (Biogen MA Inc., priority 2013, published 2016).
Where a name gives a salt, the structure may show the parent alone.

Tested on: jejunum
Assay: Transcriptional profiling on Affymetrix GeneChips, single dose, naïve mice: jejunum
Assay type: in vivo, C57BL/6 mice
Details: 100MMF-vs-Veh
Method: Treated mice were sacrificed at 2, 7, or 12 hours. Tissues (liver, spleen, kidney, jejunum, cortex, hippocampus, striatum and whole blood) were collected and analyzed by transcriptional profiling on mouse Affymetrix GeneChips.
Tissues (liver, spleen, kidney, jejunum, cortex, hippocampus, striatum and whole blood) were collected and analyzed by transcriptional profiling on mouse Affymetrix GeneChips.
Animals were exposed to CO2 and whole blood collected via cardiac puncture. Two 100 μl aliquots of whole blood were collected in 1.5 mL microcentrifuge tubes and snap frozen in liquid nitrogen. Peripheral (liver, spleen, kidney and jejunum) and CNS brain (cerebellum, hippocampus, striatum and cortex) tissues were harvested and snap frozen in liquid nitrogen, with special care taken to collect tissues of similar size and from the same location. All samples were stored at −80° C. until RNA extraction was conducted.
For RNA preparation, frozen tissues were placed in 2 mL RNAse-free 96-well blocks with 1.5 mL QIAzol Lysis Reagent (QIAgen) and a 3.2 mm stainless steel bead (BioSpec Products, Bartlesville, Okla.). Tissues were disrupted for four cycles of 45 seconds in a Mini-Beadbeater (Biospec Products). RNA was extracted in chloroform and the aqueous phase was mixed with an equal volume of 70% ethanol. Extracted RNA was applied to RNeasy 96 plates and purified by the spin method according to the manufacturer's protocol (RNeasy 96 Universal Tissue Protocol, QIAgen, Hilden Germany).
Automated sample amplifications and biotin labelings were carried out using the NuGEN Ovation RNA Amplification system V2 (Cat #3100), Ovation WB reagent (Cat #1300) and Encore Biotin module (Cat #4200) (NuGEN Technologies, Inc, San Carlos, Calif.) according to manufacturer's recommendations using an Arrayplex automated liquid handler (Beckman Coulter, Indianapolis, Ind.). Two micrograms of biotin labeled sscDNA probe were hybridized to Affymetrix GeneChip Affymetrix HT_MG-430_PM plate arrays with modified conditions as described in Allaire et al. Washing and staining of the hybridized arrays were completed as described in the GeneChip Expression analysis technical manual for HT plate arrays using the Genechip® Array Station (Affymetrix, Santa Clara, Calif.) with modifications as described in Allaire et al. The processed GeneChip® plate arrays were scanned using GeneTitan scanner (Affymetrix, Santa Clara, Calif.).
Affymetrix scans were subject to quality control (QC) measures. These tests included a visual inspection of the distribution of raw signal intensities and an assessment of RNA degradation, relative log expression (RLE), and normalized unsealed standard error (NUSE). All sample scans that passed these QC metrics were included in the analysis.
All CEL files were subjected to GC-content-based Robust Multi-array Average (GCRMA) normalization (version 2.20.0) (Irizarry R A, et al. Nucleic Acids Res 2003; 31:e15; Li C, et al. Genome Biol 2001; 2:[…]0032). Expression levels were log (base 2) transformed.
All calculations and analyses were carried out using R (version 2.11.1) and Bioconductor computational tools (Gentleman R. Springer Science+Business Media 2005).

SMILES: COC(=O)/C=C/C(=O)O [MMF, monomethyl fumarate]
- FC Slc2a1 (1426599_PM_a_at) (2 h): 1.53
- FC Slc2a1 (1426600_PM_at) (2 h): 1.68
- FC Slc40a1 (1417061_PM_at) (2 h): 2.73
- FC Slc48a1 1450410_PM_a_at (2 h): 1.62
- FC Slfn2 (1450165_PM_at) (2 h): −1.82
- FC Srxn1 (1425351_PM_at) (2 h): 1.77
- FC St3gal6 (1449078_PM_at) (2 h): 1.52
- FC Tkt (1436605_PM_at) (2 h): 1.73
- FC Tnfaip3 1433699_PM_at (2 h): −1.67
- FC Tox3 (1436600_PM_at) (2 h): 1.81
- FC Ugt2b5 (1419622_PM_at) (2 h): 3.13
- FC Ugt2b35 (1439624_PM_at) (2 h): 3.08
- FC 1110020G09Rik (1437287_PM_at) (7 h): 1.74
- FC 1447411_PM_at (7 h): 1.97
- FC 9130221J17Rik (1443159_PM_at) (7 h): 1.61
- FC 9430069I07Rik (1431672_PM_at) (7 h): 3.66
- FC Abcc2 (1450109_PM_s_at) (7 h): 1.51
- FC Abcc3 (1428988_PM_at) (7 h): 2.26
- FC Acsm5 (1437662_PM_at) (7 h): 1.71
- FC Acss2 (1446542_PM_at) (7 h): 2.06
- FC Akr1b8 (1448894_PM_at) (7 h): 14.16
- FC Akr1c12 (1450455_PM_s_at) (7 h): 1.58
- FC Akr1c13 (1418672_PM_at) (7 h): 1.86
- FC Akr1c19 (1455454_PM_at) (7 h): 2.39
- FC Aldh1a7 (1418601_PM_at) (7 h): 1.86
- FC Areg (1421134_PM_at) (7 h): 2.93
- FC Asns 1451095_PM_at (7 h): 1.60
- FC Blvrb (1451386_PM_at) (7 h): 1.55
- FC Capn13 (1437960_PM_at) (7 h): −1.75
- FC Cbr1 (1460196_PM_at) (7 h): 1.83
- FC Cbr3 (1427912_PM_at) (7 h): 40.98
- FC Ces1e (1419510_PM_at) (7 h): 2.44
- FC Ces1f (1424266_PM_s_at) (7 h): 5.19
- FC Ces1g (1449486_PM_at) (7 h): 9.24
- FC Ddc (1426215_PM_at) (7 h): 2.03
- FC Dppa5a (1416552_PM_at) (7 h): 1.88
- FC Enkur (1428960_PM_at) (7 h): −1.56
- FC Entpd5 (1451765_PM_a_at) (7 h): 1.60
- FC Esd (1438488_PM_at) (7 h): 2.15
- FC Fam162a (1451385_PM_at) (7 h): 1.67
- FC G6pd2 (1422327_PM_s_at) (7 h): 2.06
- FC G6pdx (1448354_PM_at) (7 h): 1.76
- FC Gclc (1424296_PM_at) (7 h): 2.87
- FC Gclc (1455959_PM_s_at) (7 h): 2.48
- FC Gm14446 (1435529_PM_at) (7 h): −1.65
- FC Gpx2 (1449279_PM_at) (7 h): 1.53
- FC Gsr (1421816_PM_at) (7 h): 3.13
- FC Gss (1441931_PM_x_at) (7 h): 2.20
- FC Gss (1448273_PM_at) (7 h): 2.25
- FC Gsta2 (1421040_PM_a_at) (7 h): 9.84
- FC Gsta2 (1421041_PM_s_at) (7 h): 1.90
- FC Gsta3 (1423436_PM_at) (7 h): 5.71
- FC Gsta3 (1423437_PM_at) (7 h): 5.75
- FC Gstm1 (1416416_PM_x_at) (7 h): 3.95
- FC Gstm1 (1425627_PM_x_at) (7 h): 4.80
- FC Gstm1 (1448330_PM_at) (7 h): 4.23
- FC Gstm2 (1416411_PM_at) (7 h): 2.09
- FC Gstm3 (1427473_PM_at) (7 h): 3.46
- FC Gstm3 (1427474_PM_s_at) (7 h): 1.99
- FC Gstm4 (1424835_PM_at) (7 h): 5.75
- FC Gstm6 (1422072_PM_a_at) (7 h): 2.23
- FC Gstm7 (1419072_PM_at) (7 h): 1.97
- FC Htatip2 (1451814_PM_a_at) (7 h): 1.68
- FC Ifit1 (1450783_PM_at) (7 h): −1.95
- FC Matn2 (1419442_PM_at) (7 h): 1.59
- FC Matn2 (1455978_PM_a_at) (7 h): 2.21
- FC Me1 (1416632_PM_at) (7 h): 2.01
- FC Nqo1 (1423627_PM_at) (7 h): 2.63
- FC Pgd 1423706_PM_a_at (7 h): 1.55
- FC Pgm2 (1451149_PM_at) (7 h): 1.54
- FC Pir (1429001_PM_at) (7 h): 5.12
- FC Prss8 (1418320_PM_at) (7 h): 1.75
- FC Rsad2 (1421009_PM_at) (7 h): −1.84
- FC Rsad2 (1436058_PM_at) (7 h): −1.81
- FC Rtp4 (1418580_PM_at) (7 h): −1.61
- FC Setd4 (1425239_PM_at) (7 h): 2.27
- FC Setd4 (1435405_PM_at) (7 h): 1.76
- FC Setd4 (1460373_PM_a_at) (7 h): 1.77
- FC Slc5a4b (1422757_PM_at) (7 h): 1.79
- FC Slc35e3 (1428805_PM_at) (7 h): 1.67
- FC Txnrd1 (1424486_PM_a_at) (7 h): 2.07
- FC Txnrd1 (1424487_PM_x_at) (7 h): 1.93
- FC Ugt2b5 (1419622_PM_at) (7 h): 4.50
- FC Ugt2b35 (1439624_PM_at) (7 h): 3.31
- FC Ugt2b36 (1455595_PM_at) (7 h): 2.50
- FC Acss2 (1446542_PM_at) (12 h): 1.52
